Assay results taken from patent US6596882B2, “Recovery and purification of 3,4-epoxy-1-butene using water-miscible solvents” (Eastman Chemical Company, priority 2001, dated 2003).

Tests used:
[1] = Relative distribution coefficient of epoxybutene into the aqueous phase in the presence of a water-miscible solvent; assay type: physicochemical; settings: one part solvent added to two parts of 2:1 water-epoxybutene mixture, room temperature, aqueous phase by GC; relative to water alone (=1.00)
Method: This example compares the absorption affinity of various water-miscible solvents for epoxybutene in the presence of water, as occurs in the absorbent zone of the present invention. A standard mixture of 2 parts by weight water and one part by weight epoxybutene was prepared. A portion of the standard solution was placed in a separatory funnel, shaken, allowed to settle, then separated into two liquid phases at room temperature. The water phase was analyzed by gas chromatography to determine the solubility of epoxybutene in pure water. Next, for each solvent specified in Table I, one part by weight water-miscible solvent was added to two parts of the standard water-epoxybutene solution. Each water-solvent-epoxybutene solution was placed in a separatory funnel, shaken, allowed to settle, then separated into two liquid phases at room temperature. The aqueous phase from the decantation was analyzed by gas chromatography to determine the epoxybutene solubility in that phase. From these compositions, distribution coefficients were calculated as: [formula]
The relative affinity of solvents for absorption of epoxybutene was determined from a relative molar distribution term, calculated as: [formula]

[2] = Rate of epoxybutene hydrolysis in phosphate buffers at different pH, followed by UV spectrophotometry; assay type: physicochemical
Method: The rate of epoxybutene hydrolysis was determined at several different pH levels according to the following procedure: A stirred, thermostatted cell was filled with a solution of buffered water and allowed to equilibrate at a temperature of 29° C. Phosphate buffers at a pH of 3, 5, 7, 8, 9, and 11 were prepared by adding either phosphoric acid or sodium hydroxide to a 0.05 M solution of disodium phosphate. For each experiment, the buffer solution was charged to a stirred, thermostatted equilibrium cell equipped with an UV spectrophometer probe. Once the solution had equilibrated at 29° C. and a background spectra had been collected, a 10 microliter standard sample of epoxybutene in acetronitrile (warmed to 29° C.) was injected into the cell to give an initial concentration of 0.01M epoxybutene. The disappearance of epoxybutene and formation of 3-butene-1,2-diol over time was followed by UV spectrophotometry.

[3] = 25° C.; cited from earlier work

| SMILES | Relative Distribution [1] | also measured |
| --- | --- | --- |
| CCCCOCCOCCO [2-(2-Butoxyethoxy)ethanol] | 4.30 |  |
| CC(O)CO (stereo not shown) [Propylene Glycol] | 1.90 |  |
| OCCO [Ethylene Glycol] | 1.14 |  |
| CC#N [Acetonitrile] | 1.89 |  |
| COCC(C)O (stereo not shown) [Propylene Glycol Monomethyl Ether] | 2.02 |  |
| C[S+](C)[O-] [Dimethylsulfoxide] | 1.40 |  |
| CCCCOCCO [2-Butoxyethanol] | 1.29 |  |
| COC(C)COC(C)=O (stereo not shown) [2-Methoxypropyl Acetate] | 1.05 |  |
| c1ccc2ncccc2c1 [Quinoline] | 1.03 |  |
| CCCOCCO [2-Propoxyethanol] | 1.49 |  |
| C=CC(O)CO (stereo not shown) [3-Buten-1,2-Diol] | 1.39 |  |
| CN(C)C=O [Dimethylformamide] | 2.44 |  |
| COCCOCCOCCOC [Triglyme] | 1.54 |  |
| CN1CCCC1=O [1-Methyl-2-Pyrrolidinone] | 2.78 |  |
| COCCOCCO [2-(2-Methoxyethoxy)ethanol] | 1.83 |  |
| C=CC1CO1 (stereo not shown) [Epoxybutene, 3,4-epoxy-1-butene] |  | Relative Rate of Epoxybutene Hydrolysis ([2]; pH 3, phosphate buffer, 29° C., relative to pH 7): 555.5; Relative Rate of Epoxybutene Hydrolysis ([2]; pH 3, phosphate buffer, 29° C., relative to pH 7, listed as epoxybutene): over 500; Relative Rate of Epoxybutene Hydrolysis ([2]; pH 5, phosphate buffer, 29° C., relative to pH 7): 5.6; Relative Rate of Epoxybutene Hydrolysis ([2]; pH 7, phosphate buffer, 29° C. (reference)): 1.0; Relative Rate of Epoxybutene Hydrolysis ([2]; pH 8, phosphate buffer, 29° C., relative to pH 7): 0.7; Relative Rate of Epoxybutene Hydrolysis ([2]; pH 8, phosphate buffer, 29° C., relative to pH 7, listed as epoxybutene): about 0.7; Relative Rate of Epoxybutene Hydrolysis ([2]; pH 9, phosphate buffer, 29° C., relative to pH 7): 3.2; Relative Rate of Epoxybutene Hydrolysis ([2]; pH 11, phosphate buffer, 29° C., relative to pH 7): 17.6; Relative Rate of Epoxybutene Hydrolysis ([2]; pH 11, phosphate buffer, 29° C., relative to pH 7, listed as epoxybutene): over 17; solubility of epoxybutene in water [3]: 5 to 6 weight percent |
